This passage reports ΔTm and Tm results from patent publication US9688707B2, “Bicyclic morpholino compounds and oligomeric compounds prepared therefrom” (Ionis Pharmaceuticals, Inc., priority 2014, dated 2017).

The data set deals with complementary RNA with the sequence 5′-AGCAAAAAACGC-3′ (SEQ ID NO: 6). Kind of data set: Thermal stability (Tm) assay. In kind it is binding. As to conditions: for ΔTm: calculated relative to a DNA standard, same duplex and buffer as Tm; for Tm: duplex with complementary RNA strand, buffer 100 mM NaCl, 10 mM phosphate, 0.1 mM EDTA (pH 7), heating 0.5° C./min from 15° C. to 85° C. As to the method: A series of modified morpholino oligomeric compounds were evaluated in a thermal stability (Tm) assay. A Cary 100 Bio spectrophotometer with the Cary Win UV Thermal program was used to measure absorbance vs. temperature. For the Tm experiments, oligomeric compounds were prepared at a concentration of 8 μM in a buffer of 100 mM NaCl, 10 mM phosphate and 0.1 mM EDTA (pH 7). The concentration of the oligonucleotides was determined at 85° C. The concentration of each oligomeric compound was […] after mixing of equal volumes of test oligomeric compound and complimentary RNA strand. Oligomeric compounds were hybridized with the complimentary RNA strand by heating the duplex to 90° C. for 5 minutes followed by cooling to room temperature. Using the spectrophotometer, Tm measurements were taken by heating the duplex solution at a rate of 0.5° C./min in cuvette starting @15° C. and heating to 85° C. Tm values were determined using Vant Hoff calculations (A260 vs temperature curve) using non self-complementary sequences where the minimum absorbance which relates to the duplex and the maximum absorbance which relates to the non-duplex single strand are manually integrated into the program. The oligomeric compounds were hybridized to complementary RNA with the sequence 5′-AGCAAAAAACGC-3′ (SEQ ID NO: 6). ΔTm's are calculated relative to a DNA standard.

Usually Tm stands for the temperature at the midpoint of the melting transition. Consider “05/585595: GCGTTmRTTmRTTmRGCT, diamidate linkages, morpholino, 3′-cap NH (GCGTT_{mR}TT_{mR}TT_{mR}GCT; morpholino oligomer, diamidate linkages, modified morpholino nucleosides at marked places, 3'-NH cap, as printed in the source, key not given here)”, for which the ΔTm was 5.3 °C and the melting temperature (Tm) is 50.9 °C. On the same counts, the results for “05/592592: GCGTTmRTTmRTTmRGCT, diamidate linkages, morpholino, 3′-cap NTr (trityl) (GCGTT_{mR}TT_{mR}TT_{mR}GCT; modified morpholino nucleosides, diamidate linkages, 3'-trityl cap, as printed in the source, key not given here)” are −0.8 and 44.8 °C. With “05/592594: GCGTTmSTTmSTTmSGCT, diamidate linkages, morpholino, 3′-cap NTr (trityl) (GCGTT_{mS}TT_{mS}TT_{mS}GCT; morpholino oligomer, diamidate linkages, modified morpholino nucleosides at marked places, 3'-trityl cap, as printed in the source, key not given here)”, the ΔTm is 5.1 °C and the Tm was 50.7 °C. On the same counts, the results for “05/592595: GCGTTmSTTmSTTmSGCT, diamidate linkages, morpholino, 3′-cap NH (GCGTT_{mS}TT_{mS}TT_{mS}GCT; modified morpholino nucleosides, diamidate linkages, 3'-NH cap, as printed in the source, key not given here)” are 10 °C and 55.6 °C. In the case of “05/592978: GCGTTqTTqTTqGCT, q = bicyclic morpholino, diamidate linkages, 3′-cap NTr (trityl) (GCGTT_{q}TT_{q}TT_{q}GCT; bicyclic morpholino, diamidate linkages, 3'-trityl cap, as printed in the source, key not given here)”, the ΔTm was −2.2 and the Tm worked out at 43.4 °C. The like results for “05/592979: GCGTTqTTqTTqGCT, q = bicyclic morpholino, diamidate linkages, 3′-cap NH (GCGTT_{q}TT_{q}TT_{q}GCT; morpholino oligomer, diamidate linkages, bicyclic morpholino at marked places, 3'-NH cap, as printed in the source, key not given here)” were, in that order, 3 °C and 48.6 °C. As to “05/standard: DNA standard GCGTTTTTTGCT, PO linkages, unmodified DNA, 3′-cap OH (unmodified DNA) [reference compound]”, the Tm is 45.6 °C.
